Results as given in patent US6093729A, “Substituted bicyclic heteroaroylguanidines, a process for their preparation, their use as a medicament or a diagnostic agent, and a medicament containing them” (priority 1994, dated 2000).
Where a name gives a salt, the structure may show the parent alone.

Tests used:
[1] = target: T1, Na^+ /H^+ exchanger of rabbit erythrocytes (Oryctolagus cuniculus, UniProt P23791); experiment: Inhibition of the Na^+ /H^+ exchanger of rabbit erythrocytes (amiloride-sensitive sodium influx, flame photometry); format: cell-based, rabbit (New Zealand White); details: pH 7.4, 37° C.
T1 construct: determine the Na^+ influx into the erythrocytes; endogenous in cells; host or cells: erythrocytes of cholesterol-fed New Zealand White rabbits (Ivanovas)
T1 sequence (P23791 whole entry): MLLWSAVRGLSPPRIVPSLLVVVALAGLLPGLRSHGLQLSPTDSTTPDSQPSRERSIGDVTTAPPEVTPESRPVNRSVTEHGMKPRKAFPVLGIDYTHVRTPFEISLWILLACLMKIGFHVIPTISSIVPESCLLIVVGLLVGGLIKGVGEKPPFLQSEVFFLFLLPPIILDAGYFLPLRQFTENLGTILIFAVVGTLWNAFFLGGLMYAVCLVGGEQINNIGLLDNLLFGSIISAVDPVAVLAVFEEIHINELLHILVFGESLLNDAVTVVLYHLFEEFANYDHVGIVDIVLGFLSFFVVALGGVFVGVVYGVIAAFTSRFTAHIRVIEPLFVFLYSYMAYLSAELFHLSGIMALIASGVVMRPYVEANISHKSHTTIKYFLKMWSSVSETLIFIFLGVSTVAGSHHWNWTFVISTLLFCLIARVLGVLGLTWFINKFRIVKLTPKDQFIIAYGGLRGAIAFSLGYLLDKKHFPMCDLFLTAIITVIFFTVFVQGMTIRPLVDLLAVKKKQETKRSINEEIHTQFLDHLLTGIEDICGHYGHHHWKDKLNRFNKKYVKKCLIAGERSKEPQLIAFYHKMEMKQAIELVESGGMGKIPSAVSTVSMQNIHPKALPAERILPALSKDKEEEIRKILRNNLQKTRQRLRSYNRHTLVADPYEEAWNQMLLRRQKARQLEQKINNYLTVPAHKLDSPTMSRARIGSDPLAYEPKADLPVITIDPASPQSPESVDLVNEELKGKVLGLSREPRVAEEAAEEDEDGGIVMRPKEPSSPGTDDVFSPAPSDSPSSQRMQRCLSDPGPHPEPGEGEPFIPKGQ
Description: Inhibition of the Na^+ /H^+ exchanger of rabbit erythrocytes:
New Zealand White rabbits (Ivanovas) were given a standard diet containing 2% cholesterol for six weeks in order to activate Na^+ /H^+ exchange and thus to be able to use flame photometry to determine the Na^+ influx into the erythrocytes via […]. The blood was removed from the aural arteries and rendered incoagulable by the addition of 25 IU of potassium heparin. One part of each sample was used for the duplicate determination of the hematocrit by centrifugation. Aliquots of in each case 100 μl were employed for measuring the initial content of Na^+ in the erythrocytes.
In order to determine the amiloride-sensitive sodium influx, 100 μl of each blood sample were in each case incubated, at pH 7.4 and 37° C., in 5 ml of a hyperosmolar salt/sucrose medium ([…]: 140 NaCl, 3 KCl, 150 sucrose, 0.1 ouabain, 20 tris(hydroxymethyl)aminomethane). The erythrocytes were then washed three times with ice cold MgCl2 /ouabain solution ([…]: 112 MgCl2, 0.1 ouabain) and hemolyzed in 2.0 ml of distilled water. The intracellular content of sodium was determined by flame photometry.
The nett influx of Na^+ was calculated from the difference between the initial sodium values and the sodium content of the erythrocytes following incubation. The amilorideinhibitable sodium influx was given by the difference in the sodium content of the erythrocytes following incubation with and without 3×10-4 mol/l amiloride. The same procedure was also used in the case of the compounds according to the invention.

rat hearts = details: isolated rat hearts, cited from earlier work
[2] = cited from earlier work

SMILES | IC50 [1] | other results
NC(N)=NC(=O)c1ccc2ncccc2c1 [Example 3, Quinolin-6-carboguanidide] | 3 to 5 µM | –
NC(N)=NC(=O)c1ccc2cnccc2c1 [Example 4, Isoquinoline-6-carboguanidide] | 10 µM | –
NC(N)=NC(=O)c1nc(Cl)c(N)nc1N [amiloride] | – | suppression of artificially induced ventricular fibrillation (rat hearts; Eur. Heart J. 9 (suppl. 1): 167 (1988)): completely suppress artificially induced ventricular fibrillation; antiarrhythmic effect ([2]; Circulation 79, 1257-63 (1989)): only weakly expressed; accompanying effects undesirable when treating cardiac arrhythmias ([2]; side effects): hypotensive and saluretic effects
CCN(c1nc(N)c(C(=O)N=C(N)N)nc1Cl)C(C)C [ethylisopropyl amiloride, Ethylisopropylamiloride] | – | potency relative to amiloride against artificially induced ventricular fibrillation (rat hearts; compared with amiloride): even more potent than amiloride

More lines, main results first:

IC50 [1] | SMILES | other results
2 to 3 µM | NC(N)=NC(=O)c1ccc2ccccc2n1 [Example 1, Quinoline-2-carboguanidide Dihydrochloride] | –
1.2 µM | NC(N)=NC(=O)c1cnc2ccccc2c1 [Example 2, Quinoline-3-carboguanidide Dihydrochloride] | –
< 1 µM | Cc1nc2ccc(Cl)cc2cc1C(=O)N=C(N)N [Example 8, 6-Chloro-2-methylquinoline-3-carboguanidide hydrochloride] | –
